# Measured values reported in US10358434B2, “2-(3-pyridinyl)-1H-benzimidazole derivative compound and medicament containing same” (NIHON MEDI-PHYSICS CO., LTD., priority 2014, dated 2019).
# Columns and labels:
# [1] = Plasma stability evaluation (TLC analysis); type: in vitro ADME; details: 37° C., 60 minutes, TLC analysis
# Procedure, shortened: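 Radiolabelled compounds were incubated in heparin-treated pooled normal human plasma at 37° C for 60 minutes. After methanol deproteinization and centrifugation, stability was assessed by TLC under the conditions used for each compound's synthesis.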
# [2] = tested on: human adrenal gland section expressing aldosterone-producing adenoma; test: In vitro autoradiography using human adrenal adenoma; type: binding; details: section of FIG. 17(b)
# Procedure, shortened: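 Frozen 7-μm sections of human adrenal bearing aldosterone-producing adenoma were immersed 10 min in radioligand (5-33 kBq/mL) in PBS with 1% fatty-acid-free BSA, washed, then exposed to imaging plates for 16-20 h. Equal-area ROI PSL in adenoma (B2) versus normal cortex (B1) gave B2/B1, corrected for nuclide half-life, added activity and exposure time.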
# [3] = In vivo kinetics experiment (radioactivity distribution); parameters: species or system Wistar male rat; details: rat i.v., mean ± SD
# Procedure, shortened: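 Male Wistar rats (9 weeks) under isoflurane received approximately 1 to 3.7 MBq radiotracer in saline with 1 w/v % ascorbic acid by tail-vein injection. At 10, 30 and 60 min, rats were exsanguinated; blood, organs and remaining body weighed and counted, giving % ID/g and adrenal-to-tissue ratios.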
smiles,measurement,setting,value
"FCCn1c(-c2cncc(Cn3ccnc3)c2)nc2ccc([123I])cc21 [[^123I] 604, 1-(2-Fluoroethyl)-2-[5-{(imidazol-1-yl)methyl}pyridin-3-yl]-6-[^123I]iodobenzimidazole]",Radiochemical purity after incubation in human plasma,[1],85%
same,B2/B1 accumulation ratio,[2],1.93
same,"B2 (PSL value, aldosterone-producing adenoma)",[2]; site 71b,3493
same,"B1 (PSL value, normal adrenal cortex)",[2]; site 72b,1813
same,Adrenal gland/blood ratio of radioactivity accumulation,[3]; 10 min after administration,75.41 ± 30.78
same,Adrenal gland/fat ratio of radioactivity accumulation,[3]; 10 min after administration,92.23 ± 49.88
same,Adrenal gland/kidney ratio of radioactivity accumulation,[3]; 10 min after administration,4.89 ± 2.15
same,Adrenal gland/liver ratio of radioactivity accumulation,[3]; 10 min after administration,2.48 ± 1.00
same,Adrenal gland/muscle ratio of radioactivity accumulation,[3]; 10 min after administration,67.00 ± 51.23
same,Adrenal gland/small intestine ratio of radioactivity accumulation,[3]; 10 min after administration,7.85 ± 3.21
same,Radioactivity distribution Adrenal gland,[3]; 10 min after administration,10.24 ± 4.48 % ID/g
same,Radioactivity distribution Bladder (including urine),[3]; 10 min after administration,0.43 ± 0.13 % ID/g
same,Radioactivity distribution Blood,[3]; 10 min after administration,0.13 ± 0.01 % ID/g
same,Radioactivity distribution Fat,[3]; 10 min after administration,0.11 ± 0.01 % ID/g
same,Radioactivity distribution Femur,[3]; 10 min after administration,0.85 ± 0.40 % ID/g
same,Radioactivity distribution Heart,[3]; 10 min after administration,0.65 ± 0.09 % ID/g
same,Radioactivity distribution Kidney,[3]; 10 min after administration,2.09 ± 0.09 % ID/g
same,Radioactivity distribution Large intestine,[3]; 10 min after administration,0.11 ± 0.01 % ID/g
same,Radioactivity distribution Liver,[3]; 10 min after administration,4.09 ± 0.45 % ID/g
same,Radioactivity distribution Lung,[3]; 10 min after administration,0.98 ± 0.16 % ID/g
same,Radioactivity distribution Muscle (lower limbs),[3]; 10 min after administration,0.18 ± 0.05 % ID/g
same,Radioactivity distribution Remaining whole body,[3]; 10 min after administration,0.24 ± 0.01 % ID/g
same,Radioactivity distribution Small intestine,[3]; 10 min after administration,1.29 ± 0.12 % ID/g
same,Radioactivity distribution Spleen,[3]; 10 min after administration,5.59 ± 1.78 % ID/g
same,Radioactivity distribution Stomach,[3]; 10 min after administration,0.66 ± 0.34 % ID/g
same,Radioactivity distribution Testis,[3]; 10 min after administration,0.04 ± 0.01 % ID/g
same,Radioactivity distribution Whole brain,[3]; 10 min after administration,0.01 ± 0.00 % ID/g
same,Adrenal gland/blood ratio of radioactivity accumulation,[3]; 30 min after administration,170.18 ± 126.19
same,Adrenal gland/fat ratio of radioactivity accumulation,[3]; 30 min after administration,156.19 ± 135.29
same,Adrenal gland/kidney ratio of radioactivity accumulation,[3]; 30 min after administration,9.69 ± 6.36
same,Adrenal gland/liver ratio of radioactivity accumulation,[3]; 30 min after administration,8.55 ± 5.73
same,Adrenal gland/muscle ratio of radioactivity accumulation,[3]; 30 min after administration,100.20 ± 67.99
same,Adrenal gland/small intestine ratio of radioactivity accumulation,[3]; 30 min after administration,4.37 ± 1.61
same,Radioactivity distribution Adrenal gland,[3]; 30 min after administration,15.46 ± 8.64 % ID/g
same,Radioactivity distribution Bladder (including urine),[3]; 30 min after administration,1.13 ± 0.19 % ID/g
same,Radioactivity distribution Blood,[3]; 30 min after administration,0.10 ± 0.02 % ID/g
same,Radioactivity distribution Fat,[3]; 30 min after administration,0.12 ± 0.03 % ID/g
same,Radioactivity distribution Femur,[3]; 30 min after administration,0.83 ± 0.03 % ID/g
same,Radioactivity distribution Heart,[3]; 30 min after administration,0.64 ± 0.04 % ID/g
same,Radioactivity distribution Kidney,[3]; 30 min after administration,1.65 ± 0.27 % ID/g
same,Radioactivity distribution Large intestine,[3]; 30 min after administration,0.14 ± 0.02 % ID/g
same,Radioactivity distribution Liver,[3]; 30 min after administration,1.89 ± 0.21 % ID/g
same,Radioactivity distribution Lung,[3]; 30 min after administration,0.97 ± 0.10 % ID/g
same,Radioactivity distribution Muscle (lower limbs),[3]; 30 min after administration,0.16 ± 0.02 % ID/g
same,Radioactivity distribution Remaining whole body,[3]; 30 min after administration,0.27 ± 0.01 % ID/g
same,Radioactivity distribution Small intestine,[3]; 30 min after administration,3.40 ± 0.80 % ID/g
same,Radioactivity distribution Spleen,[3]; 30 min after administration,6.71 ± 0.48 % ID/g
same,Radioactivity distribution Stomach,[3]; 30 min after administration,0.61 ± 0.14 % ID/g
same,Radioactivity distribution Testis,[3]; 30 min after administration,0.05 ± 0.01 % ID/g
same,Radioactivity distribution Whole brain,[3]; 30 min after administration,0.01 ± 0.00 % ID/g
same,Adrenal gland/blood ratio of radioactivity accumulation,[3]; 60 min after administration,329.57 ± 56.14
same,Adrenal gland/fat ratio of radioactivity accumulation,[3]; 60 min after administration,161.46 ± 40.00
same,Adrenal gland/kidney ratio of radioactivity accumulation,[3]; 60 min after administration,15.22 ± 1.37
same,Adrenal gland/liver ratio of radioactivity accumulation,[3]; 60 min after administration,19.61 ± 2.12
same,Adrenal gland/muscle ratio of radioactivity accumulation,[3]; 60 min after administration,130.19 ± 7.34
same,Adrenal gland/small intestine ratio of radioactivity accumulation,[3]; 60 min after administration,5.02 ± 1.64
same,Radioactivity distribution Adrenal gland,[3]; 60 min after administration,18.65 ± 1.67 % ID/g
same,Radioactivity distribution Bladder (including urine),[3]; 60 min after administration,3.04 ± 1.32 % ID/g
same,Radioactivity distribution Blood,[3]; 60 min after administration,0.06 ± 0.01 % ID/g
same,Radioactivity distribution Fat,[3]; 60 min after administration,0.12 ± 0.04 % ID/g
same,Radioactivity distribution Femur,[3]; 60 min after administration,0.90 ± 0.10 % ID/g
same,Radioactivity distribution Heart,[3]; 60 min after administration,0.56 ± 0.01 % ID/g
same,Radioactivity distribution Kidney,[3]; 60 min after administration,1.23 ± 0.01 % ID/g
same,Radioactivity distribution Large intestine,[3]; 60 min after administration,0.55 ± 0.52 % ID/g
same,Radioactivity distribution Liver,[3]; 60 min after administration,0.96 ± 0.10 % ID/g
same,Radioactivity distribution Lung,[3]; 60 min after administration,0.78 ± 0.03 % ID/g
same,Radioactivity distribution Muscle (lower limbs),[3]; 60 min after administration,0.14 ± 0.01 % ID/g
same,Radioactivity distribution Remaining whole body,[3]; 60 min after administration,0.28 ± 0.04 % ID/g
same,Radioactivity distribution Small intestine,[3]; 60 min after administration,3.98 ± 1.32 % ID/g
same,Radioactivity distribution Spleen,[3]; 60 min after administration,5.62 ± 1.11 % ID/g
same,Radioactivity distribution Stomach,[3]; 60 min after administration,0.89 ± 0.21 % ID/g
same,Radioactivity distribution Testis,[3]; 60 min after administration,0.05 ± 0.01 % ID/g
same,Radioactivity distribution Whole brain,[3]; 60 min after administration,0.01 ± 0.00 % ID/g
